Laboratory results as given in patent US11116760B2 (Gilead Sciences, Inc., priority 2018, dated 2021).

Target: α4β7 integrin (Homo sapiens (Human), UniProt P13612+P26010)
Assay: α4β7 Integrin Cell Capture Assay
Type: cell-based
[1] = Table 1, capture of α4β7 expressing RPM18866 cells on MadCAM-1 extracellular domain-coated plate
[2] = Table 2, capture of α4β7 expressing RPM18866 cells on MadCAM-1 extracellular domain-coated plate
[3] = RPMI8866 cells captured on MadCAM-1 extracellular domain-coated plate

Sequence of α4β7 integrin (P13612 34-1032): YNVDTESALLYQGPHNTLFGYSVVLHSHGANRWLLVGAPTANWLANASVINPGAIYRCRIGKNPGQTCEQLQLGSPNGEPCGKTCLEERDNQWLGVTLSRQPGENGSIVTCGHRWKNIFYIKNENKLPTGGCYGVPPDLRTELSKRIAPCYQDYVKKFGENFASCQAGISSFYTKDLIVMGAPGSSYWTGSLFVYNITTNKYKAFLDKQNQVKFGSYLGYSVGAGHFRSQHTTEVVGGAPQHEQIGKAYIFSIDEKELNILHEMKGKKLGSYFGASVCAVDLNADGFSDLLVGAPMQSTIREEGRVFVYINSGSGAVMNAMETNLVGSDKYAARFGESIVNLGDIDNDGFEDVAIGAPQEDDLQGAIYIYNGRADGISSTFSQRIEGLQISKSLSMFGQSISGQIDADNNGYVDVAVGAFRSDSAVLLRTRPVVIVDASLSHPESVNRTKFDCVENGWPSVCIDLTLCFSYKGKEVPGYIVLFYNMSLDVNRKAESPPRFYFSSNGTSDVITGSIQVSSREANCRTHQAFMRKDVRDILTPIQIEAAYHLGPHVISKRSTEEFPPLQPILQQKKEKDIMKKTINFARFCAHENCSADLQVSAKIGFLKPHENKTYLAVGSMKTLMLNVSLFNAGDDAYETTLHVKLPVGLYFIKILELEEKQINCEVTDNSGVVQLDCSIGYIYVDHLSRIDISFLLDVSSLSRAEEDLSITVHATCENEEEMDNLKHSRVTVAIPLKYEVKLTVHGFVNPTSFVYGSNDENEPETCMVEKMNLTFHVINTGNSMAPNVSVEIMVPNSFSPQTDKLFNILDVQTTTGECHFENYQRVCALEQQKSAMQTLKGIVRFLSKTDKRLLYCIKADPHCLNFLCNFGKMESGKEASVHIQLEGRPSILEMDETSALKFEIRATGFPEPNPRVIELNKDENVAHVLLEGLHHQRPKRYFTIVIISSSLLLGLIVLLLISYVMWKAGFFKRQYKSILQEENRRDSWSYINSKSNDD
Sequence of α4β7 integrin (P26010 20-798): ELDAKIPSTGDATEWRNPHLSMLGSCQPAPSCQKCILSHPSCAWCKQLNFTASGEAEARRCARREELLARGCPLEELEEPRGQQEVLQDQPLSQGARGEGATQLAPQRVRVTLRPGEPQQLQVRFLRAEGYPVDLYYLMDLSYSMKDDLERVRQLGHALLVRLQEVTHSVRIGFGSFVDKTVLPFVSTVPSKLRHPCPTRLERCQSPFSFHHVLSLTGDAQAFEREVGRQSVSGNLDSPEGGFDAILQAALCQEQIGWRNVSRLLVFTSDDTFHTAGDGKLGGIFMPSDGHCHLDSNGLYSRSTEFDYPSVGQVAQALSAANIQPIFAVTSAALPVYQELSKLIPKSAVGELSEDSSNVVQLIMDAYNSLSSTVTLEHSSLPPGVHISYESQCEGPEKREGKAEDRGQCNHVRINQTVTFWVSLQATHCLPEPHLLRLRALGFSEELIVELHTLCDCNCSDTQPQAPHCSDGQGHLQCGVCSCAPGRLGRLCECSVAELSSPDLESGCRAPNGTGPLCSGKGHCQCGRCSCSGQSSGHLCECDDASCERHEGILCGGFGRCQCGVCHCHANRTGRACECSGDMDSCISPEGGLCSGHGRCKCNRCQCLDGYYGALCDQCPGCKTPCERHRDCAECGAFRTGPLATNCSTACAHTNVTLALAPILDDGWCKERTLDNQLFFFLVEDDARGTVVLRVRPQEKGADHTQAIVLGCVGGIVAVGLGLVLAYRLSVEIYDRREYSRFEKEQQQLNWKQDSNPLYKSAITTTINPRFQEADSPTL

Compound | EC50 [2] | further results
N#Cc1ccc(-c2ccc(C[C@H](NC(=O)c3c(F)cc(C(=O)NCC(F)(F)F)cc3F)C(=O)O)c3cccnc23)c(Cl)c1 [Example 28, (S)-3-(8-(2-chloro-4-cyanophenyl)quinolin-5-yl)-2-(2,6-difluoro-4-((2,2,2-trifluoroethyl)carbamoyl)benzamido)propanoic acid] | – | EC50 [1]: 33.5 nM
CCOCc1cc(OC)c(-c2ccc(C[C@H](NC(=O)c3c(F)cc4[nH]c(Cc5ccccc5)cc4c3F)C(=O)O)c3cccnc23)c(OC)c1 [Example 335] | 25.1 nM | –
(S)-3-(8-(2-chloro-4-cyanophenyl)quinolin-5-yl)-2-(2,6-difluoro-4-((phenoxycarbonyl)amino)benzamido)propanoic acid [Example 41] | – | EC50 [1]: 7.7 nM
O=C(N[C@@H](Cc1ccc(-c2c(Cl)cc(F)cc2Cl)c2ncccc12)C(=O)O)c1c(F)cc(N[C@H](c2ccccc2)C(F)(F)F)cc1F [Example 282] | 26.8 nM | –
Cc1cc(C(F)(F)F)c(-c2ccc(C[C@H](NC(=O)c3c(F)cc(N4CCCC[C@@H]4C(F)(F)F)cc3F)C(=O)O)c3cccnc23)c(=O)n1C [Example 129, (S)-2-(2,6-difluoro-4-((R)-2-(trifluoromethyl)piperidin-1-yl)benzamido)-3-(8-(1,6-dimethyl-2-oxo-4-(trifluoromethyl)-1,2-dihydropyridin-3-yl)quinolin-5-yl)propanoic acid] | – | EC50 [1]: 0.7 nM
N#Cc1ccc(-c2ccc(C[C@H](NC(=O)c3c(Cl)cc4[nH]c(Cc5ccccc5)cc4c3Cl)C(=O)O)c3cccnc23)c(Cl)c1 [Example 240] | 79.2 nM | –
CC[C@@H](Nc1cc(F)c(C(=O)N[C@@H](Cc2ccc(-c3cc(C(F)(F)F)cn(C)c3=O)c3ncccc23)C(=O)O)c(F)c1)C(F)(F)F [Example 210] | 1.9 nM | –
C[C@@H](Nc1cc(F)c(C(=O)N[C@@H](Cc2ccc(-c3ncccc3C(F)(F)F)c3ncccc23)C(=O)O)c(F)c1)C(F)(F)F [Example 283] | 5.7 nM | –
O=C(N[C@@H](Cc1ccc(-c2nccc(OC3CC3)c2C(F)(F)F)c2ncccc12)C(=O)O)c1c(F)cc(N2CCOC[C@@H]2C(F)(F)F)cc1F [Example 233] | 2.2 nM | –
CC[C@@H](Nc1cc(F)c(C(=O)N[C@@H](Cc2ccc(-c3ncccc3C(C)C)c3ncccc23)C(=O)O)c(F)c1)C(F)(F)F [Example 305] | 10.2 nM | –
Cc1cc(N2CCOC[C@@H]2C(F)(F)F)cc(F)c1C(=O)N[C@@H](Cc1cc(F)c(-n2c(=O)c3ccncc3n(C)c2=O)c2ncccc12)C(=O)O [Example 433] | – | EC50 [3]: 0.076 nM
Cc1cc(C(F)(F)F)c(-c2ccc(C[C@H](NC(=O)c3c(F)cc(N4CCCC[C@@H]4C(F)(F)F)cc3F)C(=O)O)c3cccnc23)c(=O)n1C (atropisomer, axis not shown) [Example 230] | 2.2 nM | –
Cc1cc(N2CCOC[C@@H]2C(F)(F)F)cc(F)c1C(=O)N[C@@H](Cc1ccc(-c2c(C(F)(F)F)nc(C)n(C)c2=O)c2ncccc12)C(=O)O [Example 458] | – | EC50 [3]: 0.09 nM
O=C(N[C@@H](Cc1ccc(-c2nccc(C(F)(F)F)n2)c2ncccc12)C(=O)O)c1c(F)cc(N2CCOC[C@@H]2C(F)(F)F)cc1F [Example 189] | 15.1 nM | –
CC[C@@H](Nc1cc(F)c(C(=O)N[C@@H](Cc2ccc(-c3c(C(F)(F)F)cc(C)n(C)c3=O)c3ncccc23)C(=O)O)c(F)c1)C(F)(F)F (single isomer, unassigned) [Example 147] | – | EC50 [1]: 1.9 nM
O=C(N[C@@H](Cc1ccc(-c2ncc3ccccc3c2C(F)(F)F)c2ncccc12)C(=O)O)c1c(F)cccc1F [Example 71, (S)-2-(2,6-difluorobenzamido)-3-(8-(4-(trifluoromethyl)isoquinolin-3-yl)quinolin-5-yl)propanoic acid] | – | EC50 [1]: 9.5 nM
Cc1cc(N2CCOC[C@@H]2C(F)(F)F)cc(F)c1C(=O)N[C@@H](Cc1ccc(-c2nc(C)c(C)n(C)c2=O)c2ncccc12)C(=O)O [Example 477] | – | EC50 [3]: 0.115 nM
Cc1cc(N2CCOC[C@@H]2C(F)(F)F)cc(F)c1C(=O)N[C@@H](Cc1ccc(-c2c(Cl)cc(C)n(C)c2=O)c2ncccc12)C(=O)O [Example 449] | – | EC50 [3]: 0.092 nM
